Reference: PMC9545781 (British Journal of Clinical Pharmacology, 2022)
Several values for one entry are separate records, joined by “and”; a condition that tells them apart may be missing. Equal values may be shown once. Entries after “also recorded” stand apart in the source; their conditions may differ. Read-outs that look alike come from different tables or passages of the source.

Assays:
[1] = system: TSPO; settings: cited from earlier work
[2] = Plasma protein binding by equilibrium dialysis; settings: plasma spiked at 1 μM, 37°C, 4 hours, mean (SEM)
Method: (§1) Plasma protein binding was measured by equilibrium dialysis using 96‐well plate blocks with 2 compartments separated by a vertical cylinder of dialysis membrane (molecular weight cut off ~8000 Da; ThermoFisher Scientific). […] The unit was covered and incubated at 37°C on an orbital shaker for 4 hours. After incubation, samples from both plasma (bound) chamber and the buffer (free) chamber were taken and matrix‐matched by addition of the alternative blank matrix. Acetonitrile containing internal standard was added to all samples. […] The ratio of responses in free to bound samples equates to the free fraction.

[3] = system: TSPO; experiment: Estimates of TSPO occupancy from plasma concentration and binding affinity; set-up: species or system human; settings: 90 mg oral XBD173
[4] = Open-label clinical pharmacokinetic study of oral XBD173 and etifoxine in healthy volunteers (plasma LC-MSMS); assay type: in vivo, human; settings: for AUClast / concentration at 30 min / concentration at 60 min / concentration at 120 min / concentration at 180 min / concentration at 240 min / AUC(0-t) / Cmax / Tmax / AUC0‐4 h / AUC: plasma; for Adverse events: 4 healthy volunteers, XBD173 90 mg once daily 7 days and etifoxine 50 mg TDS 7 days; for concentration at 30 min / concentration at 60 min / concentration at 120 min / concentration at 180 min / concentration at 240 min / AUC(0-t) / Cmax / Tmax / AUC: human, po; for AUC: read-out: AUC0‐4 h
Method: This was a single centre, open‐label study enrolling 4 adult healthy volunteers (aged 35–65 y) irrespective of rs6971 genotype. Detailed inclusion and exclusion criteria are shown in the supplementary information. […] As a precaution, therefore, a long washout period was chosen. The first dose was taken at the clinical research facility and the participant was monitored for 4 hours. Subsequent doses were taken at home by the participant. On day 7, the participant returned for a final assessment. […] The PI of the study was Paul M. Matthews (DPhil, FRCP, FMedSci) who is an author on the manuscript.
Plasma samples for pharmacokinetic analysis were obtained on day 1 at 0.5, 1, 2, 3, 4 hours following the first dose. […] Plasma samples were stored at −20°C or lower until analysis. Plasma samples (25 μL) were prepared for analysis by protein precipitation with acetonitrile containing internal standard (tolbutamide; 200 μL) followed by mixing (150 rpm, 15 min) and centrifugation (1500 g, 15 min). The supernatant (50) μL was diluted with water (100 μL) and mixed (100 rpm, 15 min). […] Injection volume was 1 μL.

[5] = set-up: method as in PMID 19541954; settings: cited from earlier work
[6] = in vitro; settings: plasma, pH 7.4
Method: as §1

[7] = system: experimental autoimmune encephalomyelitis mouse model; settings: cited from earlier work
[8] = system: γ‐aminobutyric acid‐a receptor; settings: cited from earlier work
[9] = system: TSPO; settings: cited from earlier work; remark: listed apart in the source
[10] = Solubility limitation of etifoxine in binding assay; assay type: physicochemical; settings: assay buffer pH 7.4
Method: The specific binding component was determined using unlabelled PK11195 (10µM). Following incubation, assays were terminated via filtration through Whatman GF/B filters, followed by 3 x 1 ml washes with ice-cold wash buffer (50mM Tris Base, 1.4mM MgCl2, pH 7.4, 4 °C). Whatman GF/B filters were pre-incubated with 0.05% polyethyleneimine (60min) before filtration. Scintillation fluid (4ml/vial, Perkin Elmer Ultima Gold MV) was added and vials counted on a Perkin Elmer Tricarb 2900 liquid scintillation counter. For each donor, each point was performed in quadruplicate. Ki (nM) values were determined using GraphPad Prism 8.1 software (GraphPad Software Inc, USA).

[11] = molecular target: TSPO (Homo sapiens, UniProt P30536); experiment: Competition radioligand binding with [3H]PK11195 in human brain membranes
Method: The assay was terminated via filtration through Whatman GF/B filters. Scintillation fluid (4 mL/vial, Perkin Elmer Ultima‐Gold MV) was added and vials counted on a Perkin Elmer Tricarb 2900 liquid scintillation counter.
Tissue was obtained from 8 donors from the UK Multiple Sclerosis (MS) Tissue Bank at Imperial College. […] The tissue was stored at -80 °C until use.
Tissue blocks were homogenised in 10 times weight for volume (w/v) buffer (0.32mM sucrose, 5mM Tris base, 1mM MgCl2, pH 7.4, 4 °C). Homogenates were centrifuged (32,000g, 20min, 4 °C) followed by removal of the supernatant. Pellets were re-suspended in at least 10 times w/v buffer (50mM Tris base, 1mM MgCl2, pH 7.4, 4 °C) followed by two washes by centrifugation (32,000g, 20min, 4 °C). Membranes were suspended in buffer (50mM Tris base, 1mM MgCl2, pH 7.4, 4 °C) at a protein concentration of approximately 4 mg protein/ml and aliquots were stored at -80 °C until use.
All competition data were analysed using the iterative non-linear regression curve fitting software supplied with GraphPad Prism 8.1. A single site competition model was fitted to the data using the least squares algorithm. […] Data are expressed as the mean ± standard error of the mean (SEM). The Student’s t-test (GraphPad Prism 8.1) was used to determine statistical significance.

[12] = molecular target: γ‐aminobutyric acid‐a receptor; settings: rodent brain; cited from earlier work
[13] = 90 mg, 90mg XBD173 single oral dose, participant 2
[14] = 90 mg, 90mg XBD173 single oral dose, Mean (SEM)
[15] = 90 mg, 90mg XBD173 single oral dose, participant 1
[16] = 90 mg, 90mg XBD173 single oral dose, participant 3
[17] = 90 mg, 90mg XBD173 single oral dose, participant 4
[18] = 90 mg, 90 mg XBD173 single oral dose, Median of 4 participants
[19] = 90 mg, 90 mg XBD173 single oral dose, participant 1
[20] = 90 mg, 90 mg XBD173 single oral dose, participant 2
[21] = 90 mg, 90 mg XBD173 single oral dose, participant 3
[22] = 90 mg, 90 mg XBD173 single oral dose, participant 4
[23] = 50 mg, 50mg etifoxine single oral dose, participant 2
[24] = 50 mg, 50mg etifoxine single oral dose, Mean (SEM)
[25] = 50 mg, 50mg etifoxine single oral dose, participant 3
[26] = 50 mg, 50mg etifoxine single oral dose, participant 4
[27] = 50 mg, 50mg etifoxine single oral dose, participant 1
[28] = 50 mg, 50 mg etifoxine single oral dose, Median of 4 participants
[29] = 50 mg, 50 mg etifoxine single oral dose, participant 1
[30] = 50 mg, 50 mg etifoxine single oral dose, participant 2
[31] = 50 mg, 50 mg etifoxine single oral dose, participant 3
[32] = 50 mg, 50 mg etifoxine single oral dose, participant 4

Chain of TSPO (Homo sapiens, UniProt P30536) (P30536 2-169): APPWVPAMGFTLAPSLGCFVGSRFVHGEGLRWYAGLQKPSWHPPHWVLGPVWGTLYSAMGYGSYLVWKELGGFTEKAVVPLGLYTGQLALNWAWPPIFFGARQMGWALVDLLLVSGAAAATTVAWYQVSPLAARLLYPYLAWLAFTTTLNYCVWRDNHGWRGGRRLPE

SMILES: CCN(Cc1ccccc1)C(=O)Cn1c(=O)n(C)c2cnc(-c3ccccc3)nc21 [XBD173]
- Affinity for TSPO in the human brain [1]: 2 to 3 nM
- Fraction in plasma bound [2]: 99.66%
- Predicted TSPO occupancy ([3]; from free plasma concentration, in HABs): ~ 30%
- Predicted TSPO occupancy from total plasma concentration ([3]; total plasma concentration ~320 nM): > 99%
- AUClast ([4]; 90 mg XBD173 single oral dose, Max of 4 participants): 556 ng·h/mL
- AUClast ([4]; 90 mg XBD173 single oral dose, Min of 4 participants): 74 ng·h/mL
- Estimate of plasma concentration (total) ([4]; 90 mg oral XBD173): ~ 320 nM
- Adverse events [4]: No adverse events were reported
- concentration at 30 min [4, 13]: 5.7 ng/mL
- concentration at 60 min [4, 14]: 31.2 ng/mL
- concentration at 60 min [4, 15]: 28.4 ng/mL
- concentration at 60 min [4, 13]: 15.4 ng/mL
- concentration at 60 min [4, 16]: 62.7 ng/mL
- concentration at 60 min [4, 17]: 18.4 ng/mL
- concentration at 120 min [4, 14]: 106 ng/mL
- concentration at 120 min [4, 15]: 55.8 ng/mL
- concentration at 120 min [4, 13]: 24.2 ng/mL
- concentration at 120 min [4, 16]: 263 ng/mL
- concentration at 120 min [4, 17]: 82.7 ng/mL
- concentration at 180 min [4, 14]: 99.7 ng/mL
- concentration at 180 min [4, 15]: 43.3 ng/mL
- concentration at 180 min [4, 13]: 23 ng/mL
- concentration at 180 min [4, 16]: 161 ng/mL
- concentration at 180 min [4, 17]: 171 ng/mL
- concentration at 240 min [4, 14]: 87.6 ng/mL
- concentration at 240 min [4, 15]: 40.4 ng/mL
- concentration at 240 min [4, 13]: 24.5 ng/mL
- concentration at 240 min [4, 16]: 139 ng/mL
- concentration at 240 min [4, 17]: 146 ng/mL
- AUC(0-t) [4, 18]: 247 ng·h/mL
- Cmax [4, 18]: 114 ng/mL
- Tmax [4, 18]: 2.5 h
- AUC(0-t) [4, 19]: 148 ng·h/mL
- Cmax [4, 19]: 56 ng/mL
- Tmax [4, 19]: 2 h
- AUC(0-t) [4, 20]: 74 ng·h/mL
- Cmax [4, 20]: 25 ng/mL
- Tmax [4, 20]: 4 h
- AUC(0-t) [4, 21]: 556 ng·h/mL
- Cmax [4, 21]: 263 ng/mL
- Tmax [4, 21]: 2 h
- AUC(0-t) [4, 22]: 345 ng·h/mL
- Cmax [4, 22]: 171 ng/mL
- Tmax [4, 22]: 3 h
- Peak plasma concentrations ([5]; 90‐mg dose): micromolar range
- Plasma concentration reached ([5]; 90‐mg dose): 1000 nM
- Accumulation on repeated dosing [5]: does not accumulate
- fraction unbound at 4 h, 1 μM [6]: 0.0034

SMILES: CCNC1=Nc2ccc(Cl)cc2C(C)(c2ccccc2)O1 (centres unmarked) [etifoxine]
- Clinical scores [7]: improved clinical scores
- Concentration above which pharmacodynamic actions at the receptor are elicited [8]: above 1 μM
- Binding affinity for TSPO ([9]; rodent heart): 22.5 µM
- Binding affinity for TSPO ([9]; rodent kidney): 14 µM and 9 µM
- Fraction in plasma bound [2]: 99.71%
- Plasma free fraction [2]: 0.29%
- AUC0‐4 h ([4]; 50 mg etifoxine single oral dose, Max of 4 participants): 83 ng·h/mL
- AUC0‐4 h ([4]; 50 mg etifoxine single oral dose, Min of 4 participants): 59 ng·h/mL
- Adverse events [4]: No adverse events were reported
- Accumulation after multiple doses ([4]; etifoxine 50 mg TDS for 7 days, day 7 vs day 1 plasma concentration): did not find evidence for significant etifoxine accumulation; also recorded: did not find evidence for drug accumulation
- concentration at 30 min [4, 23]: 4 ng/mL
- concentration at 60 min [4, 24]: 8.2 ng/mL
- concentration at 60 min [4, 23]: 15.9 ng/mL
- concentration at 60 min [4, 25]: 6.2 ng/mL
- concentration at 60 min [4, 26]: 2.4 ng/mL
- concentration at 120 min [4, 24]: 29.8 ng/mL
- concentration at 120 min [4, 27]: 15.5 ng/mL
- concentration at 120 min [4, 23]: 33.4 ng/mL
- concentration at 120 min [4, 25]: 39.4 ng/mL
- concentration at 120 min [4, 26]: 30.7 ng/mL
- concentration at 180 min [4, 24]: 22.9 ng/mL
- concentration at 180 min [4, 27]: 24.2 ng/mL
- concentration at 180 min [4, 23]: 12.3 ng/mL
- concentration at 180 min [4, 25]: 27.1 ng/mL
- concentration at 180 min [4, 26]: 27.9 ng/mL
- concentration at 240 min [4, 24]: 18 ng/mL
- concentration at 240 min [4, 27]: 22.7 ng/mL
- concentration at 240 min [4, 23]: 9.2 ng/mL
- concentration at 240 min [4, 25]: 20.1 ng/mL
- concentration at 240 min [4, 26]: 20.1 ng/mL
- Cmax [4, 28]: 32 ng/mL
- Tmax [4, 28]: 2 h
- Cmax [4, 29]: 24 ng/mL
- Tmax [4, 29]: 3 h
- Cmax [4, 30]: 33 ng/mL
- Tmax [4, 30]: 2 h
- Cmax [4, 31]: 39 ng/mL
- Tmax [4, 31]: 2 h
- Cmax [4, 32]: 31 ng/mL
- Tmax [4, 32]: 2 h
- AUC [4, 28]: 68 ng·h/mL
- AUC [4, 29]: 59 ng·h/mL
- AUC [4, 30]: 64 ng·h/mL
- AUC [4, 31]: 83 ng·h/mL
- AUC [4, 32]: 71 ng·h/mL
- Highest concentration that could be studied due to limitations of solubility [10]: ≤ 30 µM
- Ki ([11]; read-out: Affinity of etifoxine for TSPO estimated here, value used for the occupancy estimate): 7.6 µM
- Ki ([11]; read-out: Estimated Ki for the whole population, single site binding curve, human brain tissue, 8 donors (4 HABs, 4 LABs), 95% CI 4.5–14.6 μM, competition curve did not fully plateau): 7.8 µM and ~7.8 µM
- Ki ([11]; read-out: Mean Ki, human brain tissue, high affinity binders (HABs), n = 4, [3H]PK11195 0.3 nM): 7.6 ± 2.2 µM
- IC50 [12]: ~6.7 µM
